The source of these data is article PMC12820809 (Biomacromolecules, 2025).

Values joined by “and” are separate entries in the source; they are usually repeats but may differ in a detail not shown here. Equal values may be shown once.

The target in one series is STAT3. As to the kind of experiment: pSTAT3 inhibition IC50, STAT3 luciferase reporter assay. As to conditions: THP-1STAT3-Luc cells, 72 h treatment, then IL-6 stimulation 5 h, luminescence. It is filed as cell-based, human. (A reporter such as luciferase makes a cellular process visible.)
The conditions of series [1]: cited from earlier work.
Series [2] has as its system bone marrow cells from wildtype C57BL/6 mice (M-MDSCs, dendritic cells). Format: cell-based. As to conditions: 72 h, KR158 glioma conditioned media.
For series [3] the following is noted: in water at a concentration equivalent to 10 mg/mL of LLL12.
For another series, the system named is THP-1STAT3-Luc cells. As to conditions: 72 h, concentration beyond 1.23 μg/mL.

A word on the LogP: it is the decadic logarithm of the partition coefficient of the neutral form, usually between octanol and water.

For the compound `NS(=O)(=O)c1cccc2c1C(=O)c1cccc(O)c1C2=O` [LLL12], the “IC50 of STAT3 inhibition” value at STAT3 was 0.31 ± 0.05 µg/mL and 0.307 µg/mL. Moreover, the LogP in series [1] was 2.596. Moreover, the “Ly6C+ M-MDSC population compared to vehicle control” value in series [2] (0.4 μg/mL and 0.04 μg/mL) was “statistically significant reduction”. Besides, in series [2] (0.004-0.4 μg/mL), the “CD86+ cells (APC activation)” value was “dose-dependent increase”. In series [2] (highest concentration (0.4 μM)), the “CD11c expression (CD11c+ cells) compared to vehicle” value is “statistically significant increase”. In addition, in series [3], the “Water solubility (visual)” value is on record as “poorly soluble”. The Cell death with THP-1STAT3-Luc cells was ~100%.
